The NIST ThermoML archive (doi:10.1021/je800224k)

Conditions: Liquid, Bellows volumetry

CCn1cc[n+](C)c1.F[B-](F)(F)F [1-ethyl-3-methylimidazolium tetrafluoroborate]
mass density [kg/m3]
Conditions	392.9 K	413 K	432.9 K	452.6 K	472.4 K
10000 kPa	–	1202	1189	1176	1163
20000 kPa	–	1208	1195	1182	1169
30000 kPa	–	1213	1200	1188	1175
40000 kPa	–	1219	1206	1193	1181
50000 kPa	–	1224	1211	1199	1187
60000 kPa	–	1229	1216	1204	1192
70000 kPa	–	1233	1221	1209	1197
80000 kPa	–	1238	1226	1214	1202
90000 kPa	1254	1242	1230	1219	1207
100000 kPa	1259	1247	1235	1223	1212
110000 kPa	1263	1251	1239	1228	1217
120000 kPa	1267	1255	1243	1232	1221
130000 kPa	1270	1259	1247	1236	1226
140000 kPa	1274	1263	1252	1240	1230
150000 kPa	1278	1267	1255	1245	1234
160000 kPa	1282	1270	1259	1248	1238
170000 kPa	1285	1274	1263	1252	1242
180000 kPa	1289	1278	1267	1256	1246
190000 kPa	1292	1281	1270	1260	1250
200000 kPa	1295	1285	1274	1264	1253
